The results in this text go back to patent US6664249B1, “Bicyclic vasopressin agonists” (Ferring BV, priority 1999, dated 2003).

In this test the test system is Brattleboro rat. Kind of test: urine output in Brattleboro rats (model of vasopressin deficiency). The test is classed as in vivo. The following applies: 1 mg/kg p.o. in methylcellulose, vs control animals. The protocol: The Brattleboro rat is a recognised model for vasopressin deficiency (for a review see F D Grant, “Genetic models of vasopressin deficiency”, Exp. Physiol. 85, 203S-209S, 2000). […] Compounds of the invention were administered to Brattleboro rats (0.1-10 mg/kg p.o. in methylcellulose. Urine was collected hourly and volumes were compared with control animals. Animals had free access to food and water throughout the experiment. Representative results are given in the Table. Results for Desmopressin are given for comparison.
As for `CCOC(=O)CNC(=O)NCc1ccc(C(=O)N2CCCCc3ccccc32)cc1C` [Example 5, 1-(4-[N-(2-Ethoxy-2-oxoethylcarbamoyl)aminomethyl]-3-methylbenzoyl)-2,3,4,5-tetrahydro-1H-1-benzazepine], the “% inhibition of urine output (at 1 hour)” value was 74%.
Turning to `Cc1cc(C(=O)N2CCCCc3ccccc32)ccc1CNC(=O)NCC(=O)O` [Example 6, 1-(4-[N-(Carboxymethylcarbamoyl)aminomethyl]-3-methylbenzoyl)-2,3,4,5-tetrahydro-1H-1-benzazepine], the “% inhibition of urine output (at 1 hour)” value stood at 38%.
As to `Cc1cc(C(=O)N2CCCCc3ccccc32)ccc1CNC(=O)NCC(=O)N(C)C` [Example 8, 1-(4-[N-(2-Dimethylamino-2-oxoethylcarbamoyl)aminomethyl]-3-methylbenzoyl)-2,3,4,5-tetrahydro-1H-1-benzazepine], the “% inhibition of urine output (at 1 hour)” value was 45-82%.
For `Cc1cc(C(=O)N2CCCCc3ccccc32)ccc1CNC(=O)NCC(=O)N1CCCCC1` [Example 25, 1-(3-methyl-4-[N-(2-(1-piperidino)-2-oxoethylcarbamoyl)aminomethyl]benzoyl)-2,3,4,5-tetrahydro-1H-1-benzazepine], the “% inhibition of urine output (at 1 hour)” value is 58%.
